Reference: patent US9526250B2, “Methods for delaying maturity of crops” (Plant Protectants, LLC, priority 2009, dated 2016)

Columns and labels:
[1] = tested on: oranges (Navels); test: Fruit dipping of oranges at color break, peel color development (example 2); assay type: in vivo, navel oranges; conditions: 2 min immersion at 50° F., incubated at 15° C., chart of FIG. 1 (1-8), initial color 5.5
Source text: (§1) The invention is further illustrated by the following non-limiting examples. It is to be appreciated that, although each of the exemplary experiments used potassium phosphite, that other salts of phosphorous acid, including without limitation, ammonium, sodium, and/or calcium salts, as well as phosphorous acid itself may also have been used. For examples 1 and 2 below, assessment of citrus fruit peel color was made using the following color grading charts (FIG. 1 for Navels; FIG. 2 for Lemons) in addition to the Dictionary of Color by Maerz and Paul, First Edition (1930). All experiments were conducted in solutions at approximately pH 6, although pH ranges from between about 3 and about 9 are acceptable.
Five different treatments (A-E below) were made. There were four replications for each of the five treatments, with each replicate comprising six fruit pieces. Thus, each treatment was applied to 24 fruit pieces. The fruit treated in this example were oranges at the color break stage, the fruit being predominantly green with some development of orange color (initial color 5.5). […]
(§2) After the treatments were applied and left to dry for 10 minutes, all treatments were recorded for peel color using FIG. 1 above and the Dictionary of Color, and rated for color development and photographed. The fruit was placed in humid incubators at 15° C. and monitored weekly for color development. […]

[2] = tested on: green lemons; test: Fruit dipping of green lemons, peel color development (example 1); assay type: in vivo; conditions: 2 min immersion at 50° F., incubated at 15° C., chart of FIG. 2 (1-8), initial color approx 5.5
Source text: as §1
Five different treatments (A-E below) were made. There were four replications for each of the five treatments, with each replicate comprising six fruit pieces. Thus, each treatment was applied to 24 fruit pieces. […]
as §2, with “FIG. 2” for “FIG. 1”

[3] = tested on: firm green tomatoes; test: Fruit dipping of firm green tomatoes, peel color development (example 4); assay type: in vivo; conditions: 2 min immersion at 75° F., incubated at 30° C., USDA chart of FIG. 5, initial 3.5
Source text: For example 4 below, assessment of the tomato peel color was made using the USDA color grading chart (FIG. 5) in addition to the Dictionary of Color.
The color grading chart (FIG. 5) is a reproduction of the “Tomato Color Standards USDA Visual Aid TM-L-1” which consists of a chart containing twelve color photographs illustrating certain color classification requirements. The official USDA chart is incorporated herein by this reference. Table 6 below sets forth approximate cross-references to the Dictionary of Color for the 12 colors of the USDA chart:
In example 4, five different treatments (A-E below) were made. There were four replications for each of the five treatments, with each replicate comprising six fruit pieces. Thus, each treatment was applied to 24 fruit pieces. The fruit treated in this example were firm green tomatoes according to the chart above was 3.5 (initial color 11-C-22) at the onset of color break. Immersion temperatures were approximately 75° F. (24° C.). […]
After the treatments were applied and left to dry for 10 minutes, all treatments were recorded for peel color using the Dictionary of Color and also the USDA Tomato Color Standards Chart (FIG. 5 herein), and rated for color development and photographed. […] (86° F.) and monitored weekly for color development. […]

[4] = tested on: navel orange tree (variety Cara Cara); test: Field spray of navel orange trees in situ, fruit color development (example 3); assay type: in vivo; conditions: Navels on trees, pH about 5-6, assessed approximately 30 days later, chart of FIG. 1
Source text: Five different treatments (T1-T5 below) were made. There were four replications for each of the five treatments, with each replicate comprising one navel orange tree (variety Cara Cara) in situ. Thus, each treatment was applied to 4 different trees. Treatments were all made using a motorized high volume agricultural sprayer and an application volume equivalent to 5000 L/ha (liters/hectare), or approximately 530 gallons/acre. This is approximately equivalent to 12.5 L (3.3 gal)/tree. The trees were sprayed during early color break (late October/early November) with a wetting agent added at 0.01% (v/v).
Treatments were as follows: • T1. Untreated trees=control. • T2. Water solution containing gibberellic acid at 16 ppm. • T3. Water solution containing potassium phosphite (expressed as equivalent amount of phosphorous acid) sprayed at 600 ppm. • T4. A tank water mixture of potassium phosphite (expressed as equivalent amount of phosphorous acid) sprayed at 300 ppm plus gibberellic acid at 16 ppm • T5. […]
The spray tank pH for all the treatments T2-T5 were adjusted with citric acid to a pH of between about 5 and about 6 (in accordance with the manufacturers instructions for gibberellic acid usage), and a small amount of a non ionic wetter added to the tank (0.01% v/v). […] The fruit on the trees were assessed for color development approximately 30 days later, during December. […]

[5] = gibberellic acid 100 ppm in water

In the case of C=C1C[C@]23C[C@@]1(O)CC[C@H]2[C@@]12C=C[C@H](O)[C@@](C)(C(=O)O1)[C@H]2[C@@H]3C(=O)O [Gibberellic acid (GA), gibberellic acid], the “Mean Color Rating” value [1, 5] is reported as 3.2 b, the “Mean Color Rating” value [2, 5] is reported as 3 b and the “Mean Color Rating” value ([3]; gibberellic acid 100 ppm) is reported as 4.6 b. For the same molecule, the “Mean Color Rating” value ([4]; gibberellic acid 16 ppm sprayed at 5000 L/ha) was 3.2 b.
potassium phosphite was tested, and the “Mean Color Rating” value ([1]; 2% (w/w) potassium phosphite) was 3.5 bc, the “Mean Color Rating” value ([2]; 2% (w/w) potassium phosphite) was 3.6 c and the “Mean Color Rating” value ([3]; 2% (w/w) potassium phosphite) was 4.8 b. For the same molecule, the “Mean Color Rating” value ([4]; potassium phosphite 600 ppm (as phosphorous acid) sprayed at 5000 L/ha) was 3.5 bc.
